Patent US8772237B2, “Compositions and methods for counteracting effects of reactive oxygen species and free radicals” (Ischemix, Inc., priority 1999, dated 2014)
Ends that are not written are not given here.

What was measured:
[1] = test system: transcription factor AP-1; assay: Electrophoretic mobility shift assay (EMSA) for AP-1 activation in primary rat neurons / cortical cultures; assay type: cell-based
Protocol: Nuclear extracts for electrophoretic mobility shift assays (EMSAs) were prepared as described previously (Adams et al., J. Leukocyte Biol., 62: 865-873 (1997)) using 1.0-2.0×10^7 cells per sample. All buffers were freshly supplemented with dithiothreitol (DTT, 0.5 mM), protease inhibitors: PMSF (0.5 mM), chymostatin, peptstatin-A, aprotinin, antipain, leupeptin (each at 1 μg/ml), and phosphatase inhibitors: NaF (10 mM), ZnCl2 (1 mM), sodium orthovanadate (1 mM), and sodium pyrophosphate (5 mM). Aliquots of the final dialyzates were stored at −80° C. and discarded after use.
AP-1 transcription factor activation was assayed using an electrophoretic mobility shift assay (EMSA), as described by Adams et al., J. Leukoc. Biol., 62:865-873 (1997)). Cultures of primary rat neurons (Cornell-Bell et al., Cell Calcium, 12: 185-204 (1991)) were stimulated for 3 hours with various concentrations (0, 1, 10, 100 ng/ml) of peptide CMX-9236. Nuclear extracts prepared as described above were separated by gel electophoresis on non-denaturing gels and subjected to the EMSA procedure. This EMSA used an AP-1 synthetic duplex probe (Angel, P., 1987, Cell 49:729-739) having the sequence 5′-[…] (SEQ ID NO:33) and its antisense copy (complement strand), which were end-labeled with P^32 using polynucleotide kinase and (γ-P^32)-ATP. For the EMSA reaction, the labeled probe (0.5 pmol) was mixed with 3 μg of nuclear extract protein in a solution containing 10 mM Tris-HCl, pH 7.5, 50 mM NaCl, 1 mM EDTA, 1 mM dithiothreitol, 5% glycerol, 0.02% β-mercaptoethanol, and 1 μg of poly-dI/dC (Pharmacia). Reaction mixtures were incubated at 25° C. for 20 minutes to allow complete complex formation by the duplex with its appropriate AP-1 protein. The mixture was then electrophoresed under non-denaturing conditions through 4% polyacrylamide gels in 0.5×TBE buffer (45 mM Trisma base, 45 mM boric acid, 1 mM EDTA). The gels were dried on 3 mm paper. Bands were visualized by autoradiography at −80° C. with one intensifying screen and quantified by laser densitometry. The upregulation of AP-1 and the activation and upregulation process of AP-1 was compared to control cultures.
Primary cortical cell cultures were grown to confluence and used in in vitro cultures for determining the effects of various representative peptide compounds on upregulation of AP-1. […] Extracts were prepared from the nuclei isolated from the primary culture homogenates, purified, and analyzed for the presence of specific transcription factors using the electrophoretic mobility shift assay (EMSA) method. The binding of ^32P-labeled duplex DNA probes specific for activator protein-1 (AP-1) or nuclear factor κB (NF-κB) was analyzed and quantified by autoradiography. After a 3-hour incubation of the cultures with 1 ng/ml of the peptide CMX-9236 there was a 15-fold increase of AP-1 relative to […] control cultures. […] Thus, a small peptide compound that is less than 20 amino acids long can simulate the properties of large growth factors such as NGF and BDNF, which exist as dimers of protein chains with molecular weights of 13,259 and 13,500, respectively.

[2] = test system: middle cerebral artery (MCA) permanent occlusion stroke model; assay: Permanent MCA 24-hour occlusion stroke model; assay type: in vivo, Sprague-Dawley rats; conditions: rat, in vivo
Protocol: The in vivo neuroprotective effects of CMX-9236 were investigated in both temporary and permanent occlusion stroke models in Sprague-Dawley rats using an intraluminal suture of the middle cerebral artery (MCA) occlusion method (Zea Longa et al., Stroke, 20: 84 (1989)). Briefly, a 4-0 silicone-coated suture was inserted through the right common carotid artery to block the MCA orifice. In the temporary model, CMX-9236 (6.2 mg/kg/hr) or vehicle was administered via the femoral vein at 30 minutes after the start of a 2-hour occlusion for a 4-hour continuous infusion; the rats were then reperfused by withdrawing the suture at […] after the MCA occlusion. All experiments were performed in a blinded and randomized manner, and rectal temperature was maintained at 37° C. The animals were sacrificed, and their brains were removed, sectioned into six 2-mm-thick coronal slices and stained with 2,3,5-triphenyltetrazolium chloride solution (Bederson et al., Stroke, 17:1304 (1986)) to visualize the extent of brain damage for the calculation of the corrected hemispheric infarct volumes (Nagasawa and Kogure, Stroke, 20:1037 (1989); Li et al., J. Cereb. Blood Flow Metab., 17:1132 (1997)). […] This represents a significant reduction of infarct size (35±5%, p=0.01, student t-test) for the CMX-9236-treated group in the temporary occlusion model. There was also a 58+11% improvement in the neurological scoring (Minematsu et al., Neurology, 42:235 (1992)) for the peptide-treated group versus controls at the end of 24 hours.
In the permanent occlusion stroke model, the blood flow to the MCA territory was blocked for the total 24-hour period. A continuous i.v. infusion (0.5 ml/hr) of the CMX-9236 peptide (2.04 mg/kg/hr) or vehicle was initiated at 30 minutes after occlusion for 6 hours, followed by a bolus i.v. infusion of CMX-9236 (4.0 mg/kg in 0.5 ml delivered over 10 minutes) or vehicle at 12 hours after occlusion. The corrected infarct volumes were 127.5±18 mm^3 versus 216±18 mm^3 for drug-treated animals and controls, respectively. This represents a significant decrease (41±5%, p=0.003, student t-test) in infarct size for the drug-treated group as compared to the vehicle-treated control group (n=10 per group) in the permanent model, indicating a substantial rescue of brain tissue. These findings indicate that CMX-9236 has neuroprotective properties post-trauma in vivo, reducing the brain damage generated by cerebral ischemia.

[3] = test system: superoxide dismutase-1 (SOD-1) mRNA; assay: RT-PCR upregulation of SOD-1 mRNA in rat primary cortical cell cultures; assay type: cell-based; conditions: 10 ng/ml, 3 hours
Protocol: The RT-PCR method (see, for example, Innis et al., PCR Protocols: A Guide to Methods and Applications, (Academic Press, San Diego, 1990)) was used to investigate the upregulation of the specific mRNA that codes for the enzyme superoxide dismutase (SOD).
(§1) Primary cortical cultures were obtained by growing newborn rat brain cortical cells in Delbecco's modified Eagle medium supplemented with 25 μg/ml of gentamycin and 10% fetal calf serum. The cells were isolated from the E-21 cortex of rat brain, plated at a density of 1×10^5 per ml and grown to confluence within four to five days in an atmosphere containing air and 5% CO2 at 37° C. as described in Cornell-Bell et al., Science, 247: 470-473 (1990) and Cell Calcium, 12: 185-204 (1991). Cultures were grown in 20 ml flasks as a monolayer and then exposed to various concentrations of peptides for studies of the effects of peptides on upregulation of genes for SOD and CAT and on the transmigration of transcription factor AP-1 to cell nuclei.
Primary cultures of rat brain cortical cells were incubated with 100 ng/ml of peptide compound CMX-9236 for durations of 0 to 48 hours. mRNA was isolated from the cytoplasmic fraction of lysed cells according to standard methods (Angel et al., Cell 49:729-739, 1987). The RNA was incubated according to the RT-PCR protocol with two strands, 20 nucleotides long, one for the sense and one from the antisense strand. The sequences were selected to be unique for superoxide dismutase-1 (SOD-1), and to span one intron segment. […] The sequence of the two probe segments of the oligo dT segments for SOD are as follows: anti-sense strand, […] (SEQ ID NO:29), and sense strand, […] (SEQ ID NO:30). These span a sequence of 208 base pairs (bp) on the primary SOD sequence. The mixture was then treated with reverse transcriptase to obtain the cDNA according to standard PCR methods. The cDNA was then analyzed by electrophoresis and separated according to sequence lengths on a non-denaturing 5% polyacrylamide gel. The electrophoretically separated molecules were treated with ethidium bromide to stain double-stranded DNA fragments. These were visualized by ultraviolet illumination and photographed. The gels were then analyzed by a laser scanning fluorescence detector to quantitate the amount of messenger RNA for the extent of upregulation of SOD message and its time course of synthesis as a function of stimulation by CMX-9236. Similar methods of analysis were used for other peptides.

[4] = test system: superoxide dismutase (SOD) protein; assay: Western immunoblot of SOD protein in rat brain primary cortical cultures; assay type: cell-based; conditions: for SOD: 5 hours at 37° C.
Protocol: as §1, with “nuclei. […]” for “nuclei.”
(§2) Tissue culture experiments were carried out using primary cultures of rat brain cortical cells as previously described above in Example 2. Primary cultures from embryonic rat brain isolated at E-21 (21 day embryos) and incubated for five hours with various doses: 1, 10, 100 ng/ml of CMX-99672. Cytoplasmic proteins were isolated and analyzed for upregulation of SOD and CAT by Western immunoblots as described above. […] The Western blot was scanned to quantify the fold-increase in SOD production in cell cultures treated with the CMX-99672 peptide compound.
Representative peptide compounds were tested at various doses and compared for their ability to upregulate expression of genes for SOD and/or CAT in rat primary cortical cultures basically as described above. Cultures were incubated with a peptide compound for 5 hours at 37° C. Cytoplasmic protein fractions were prepared as described above. Cytoplasmic proteins were separated by gel electrophoresis and analyzed by Western immunoblots using antisera to SOD and CAT, respectively (Rockland, Inc., Gilbertsville, Pa.). […]

catalase (CAT) mRNA = assay: RT-PCR upregulation of catalase (CAT) mRNA in primary rat cortical cultures; assay type: cell-based; conditions: 10 ng/ml, 3 hours
Source text: Peptide compounds of the invention may also upregulate mRNA for catalase (CAT). Experiments using the RT-PCR methods to detect upregulation of CAT mRNA in primary rat cortical brain cultures treated with various representative peptide compounds, i.e., CMX-9236, CMX-9963, and CMX-9967. The catalase probe duplex consisted of a sense primer having the sequence […] (SEQ ID NO:31) and antisense primer having the sequence […] (SEQ ID NO:32) flanking a 95 bp region of the CAT DNA.
Primary rat brain cortical cell cultures were incubated with 100 ng/ml of the peptide compound CMX-9236 for 0, 0.5, 1, 2, 3, 6, 12, 24, and 48 hours. […] The upregulation of CAT mRNA was maximal at 3 hours after the addition of the peptide compound, and it decreased back to control levels at 48 hours. GAPDH was the internal standard in these experiments. […] A 13-fold increase in CAT mRNA levels was observed (over control) of CAT mRNA occurred when primary rat brain cortical cultures were incubated with 100 ng/ml of CMX-9236 for 3 hours.

catalase (CAT) protein = assay: Western immunoblot of CAT protein in rat primary cortical cultures; assay type: cell-based; conditions: Dose 28 pmol/ml, 5 hours at 37° C.
Protocol: as §2
Representative peptide compounds were tested at various doses and compared for their ability to upregulate expression of genes for SOD and/or CAT in rat primary cortical cultures basically as described above. Cultures were incubated with a peptide compound for 5 hours at 37° C. Cytoplasmic protein fractions were prepared as described above. Cytoplasmic proteins were separated by gel electrophoresis and analyzed by Western immunoblots using antisera to SOD and CAT, respectively (Rockland, Inc., Gilbertsville, Pa.).

[5] = test system: middle cerebral artery (MCA) permanent occlusion stroke model; assay: Permanent MCA 24-hour occlusion stroke model; assay type: in vivo, Sprague-Dawley rats; conditions: Dose 0.05 mg/hr

Substance | activation / upregulation of AP-1 (in words) [1] | neuroprotective effect in permanent MCA assay (in words) [2] | maximum increase of SOD-1 mRNA [3] | SOD ([4]; Dose 6.7 pmol/ml) [% Control] | maximum increase of CAT mRNA (catalase (CAT) mRNA) [fold] | CAT (catalase (CAT) protein) [% Control] | SOD ([4]; Dose 28 pmol/ml) [% Control] | fold-increase in SOD-1 protein (intensity of antibody binding) ([4]; cells treated 5 hours with 10 and 100 ng/ml) [fold] | Percent Neurological Rescue [5] [%] | Percent Rescue (percent decrease in infarct size vs vehicle controls) [5] [%]
KKETLQFR [CMX-8933, described in U.S. Pat. No. 5,545,719] | upregulated AP-1 | positive neuroprotective effect |  |  |  |  |  |  |  | 
KKQYKLGSKTGPGQ [CMX-9901] | upregulated AP-1 | positive neuroprotective effect |  |  |  |  |  |  |  | 
[Ac]-Asp Gly Asp Gly Asp Phe Ala (Ac-DGDGDFA) [CMX-9963] |  |  | around 10 fold | 1873 | ~7 | 700 |  |  |  | 
[Ac]-Asp Gly Asp [CMX-9967] |  |  | 6 fold |  | 6 | 200 | 1220 | ≥ 20 | 40 ± 10 | 20 ± 6
